Calls of active or inactive are those of the source. No cut-off for these calls is given here.
Assays:
[1] = molecular target: Oxysterols receptor LXR-beta (Homo sapiens, UniProt P55055); assay: Displacement of [3H]N-(4-(1,1,1,3,3,3-hexafluoro-2-hydroxypropan-2-yl)phenyl)-N-methylbenzenesulfonamide from LXRbeta by scintillation proximity assay
[2] = molecular target: T1, Oxysterols receptor LXR-alpha (Homo sapiens) (UniProt Q13133); assay: (§1) Displacement of [3H]N-(4-(1,1,1,3,3,3-hexafluoro-2-hydroxypropan-2-yl)phenyl)-N-methylbenzenesulfonamide from LXRalpa by scintillation proximity assay
T1 sequence (whole entry): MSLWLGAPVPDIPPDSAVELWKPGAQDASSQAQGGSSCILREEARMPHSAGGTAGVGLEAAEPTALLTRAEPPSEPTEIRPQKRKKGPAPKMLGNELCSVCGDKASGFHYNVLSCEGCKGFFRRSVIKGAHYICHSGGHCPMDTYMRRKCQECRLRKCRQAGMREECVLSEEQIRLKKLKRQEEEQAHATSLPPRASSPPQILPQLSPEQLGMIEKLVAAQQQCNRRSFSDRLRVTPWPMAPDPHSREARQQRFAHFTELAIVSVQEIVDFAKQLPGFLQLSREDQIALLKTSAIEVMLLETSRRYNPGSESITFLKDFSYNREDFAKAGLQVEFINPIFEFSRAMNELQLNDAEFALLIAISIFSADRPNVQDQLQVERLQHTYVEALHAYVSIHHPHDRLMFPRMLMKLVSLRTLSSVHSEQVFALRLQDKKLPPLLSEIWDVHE

[3] = molecular target: T2, Oxysterols receptor LXR-alpha (Homo sapiens, UniProt Q13133); assay: as §1
T2 sequence (Q13133 whole entry): T1 sequence (whole entry)

Sequence of Oxysterols receptor LXR-beta (P55055 whole entry): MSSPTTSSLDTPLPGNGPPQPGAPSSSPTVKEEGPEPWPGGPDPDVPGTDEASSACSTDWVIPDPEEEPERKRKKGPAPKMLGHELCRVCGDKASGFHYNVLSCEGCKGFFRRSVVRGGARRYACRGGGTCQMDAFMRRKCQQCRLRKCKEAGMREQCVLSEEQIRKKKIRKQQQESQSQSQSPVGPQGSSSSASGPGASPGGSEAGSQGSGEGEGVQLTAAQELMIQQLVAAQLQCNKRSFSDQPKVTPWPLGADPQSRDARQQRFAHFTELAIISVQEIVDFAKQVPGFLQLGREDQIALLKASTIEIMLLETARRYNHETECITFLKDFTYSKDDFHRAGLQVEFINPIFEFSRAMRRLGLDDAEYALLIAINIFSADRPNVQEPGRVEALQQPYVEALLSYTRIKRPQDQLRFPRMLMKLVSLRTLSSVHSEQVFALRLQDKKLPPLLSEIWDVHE

Row | inhibition [1] | inhibition [2] | IC50 [1] [µM] | IC50 [3] [µM] | SMILES
1 | inactive | inactive | – | – | COCCn1cccc1C(C)c1ccc(N(C)S(=O)(=O)c2ccccc2)cc1 (centres undefined)
2 | inactive | inactive | – | – | COCCn1cccc1C(C)(O)c1ccc(N(C)S(=O)(=O)c2ccccc2)cc1 (centres undefined)
3 | inactive | inactive | – | – | CN(c1ccc(C(O)(c2ccc[nH]2)C(F)(F)F)cc1)S(=O)(=O)c1ccccc1 (centres undefined)
4 | inactive | inactive | – | – | COCCn1cccc1C(=O)c1ccc(N(C)S(=O)(=O)c2ccccc2)cc1
5 | inactive | inactive | – | – | CCCCn1cccc1C(O)(c1ccc(N(C)S(=O)(=O)c2ccccc2)cc1)C(F)(F)F (centres undefined)
6 | inactive | inactive | – | – | CCCCCCn1cccc1C(O)(c1ccc(N(C)S(=O)(=O)c2ccccc2)cc1)C(F)(F)F (centres undefined)
7 | inactive | inactive | – | – | CCCC(c1ccc(N(C)S(=O)(=O)c2ccccc2)cc1)c1cccn1CCOC (centres undefined)
8 | inactive | inactive | – | – | CCC(c1ccc(N(C)S(=O)(=O)c2ccccc2)cc1)c1cccn1CCOC (centres undefined)
9 | inactive | inactive | – | – | CCCn1cccc1C(O)(c1ccc(N(C)S(=O)(=O)c2ccccc2)cc1)C(F)(F)F (centres undefined)
10 | inactive | inactive | – | – | CCC(C)n1cccc1C(O)(c1ccc(N(C)S(=O)(=O)c2ccccc2)cc1)C(F)(F)F (centres undefined)
11 | inactive | inactive | – | – | COCCn1cccc1C(O)c1ccc(N(C)S(=O)(=O)c2ccccc2)cc1 (centres undefined)
12 | inactive | inactive | – | – | CCn1cccc1C(O)(c1ccc(N(C)S(=O)(=O)c2ccccc2)cc1)C(F)(F)F (centres undefined)
13 | inactive | inactive | – | – | COCCn1cccc1C(OC)c1ccc(N(C)S(=O)(=O)c2ccccc2)cc1 (centres undefined)
14 | inactive | inactive | – | – | COCCn1cccc1C(CO)c1ccc(N(C)S(=O)(=O)c2ccccc2)cc1 (centres undefined)
15 | inactive | inactive | – | – | CCCC(O)(c1ccc(N(C)S(=O)(=O)c2ccccc2)cc1)c1cccn1CCOC (centres undefined)
16 | inactive | inactive | – | – | COCCn1cccc1Cc1ccc(N(C)S(=O)(=O)c2ccccc2)cc1
17 | inactive | inactive | – | – | CN(c1ccc(C(O)(c2cccn2C)C(F)(F)F)cc1)S(=O)(=O)c1ccccc1 (centres undefined)
18 | inactive | inactive | – | – | CN(c1ccc(C(O)(c2cccn2CCO)C(F)(F)F)cc1)S(=O)(=O)c1ccccc1 (centres undefined)
19 | – | – | > 10 | > 10 | COC(c1ccc(N(C)S(=O)(=O)c2ccccc2)cc1)(c1cccn1Cc1ccccc1)C(F)(F)F (racemic)
20 | inactive | inactive | – | – | CCOC(c1ccc(N(C)S(=O)(=O)c2ccccc2)cc1)c1cccn1CCOC (centres undefined)
21 | inactive | inactive | – | – | CN(c1ccc(C(O)(c2cccn2CCCO)C(F)(F)F)cc1)S(=O)(=O)c1ccccc1 (centres undefined)
22 | inactive | inactive | – | – | CCC(O)(c1ccc(N(C)S(=O)(=O)c2ccccc2)cc1)c1cccn1CCOC (centres undefined)
